Results published in the supplement of paper PMC7600603.

How the values were obtained:
DLD1 NRF2-WT [1] = settings: 72 h; CellTiter-Glo viability
Method in brief: (§1)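 DLD1 colorectal cancer cells, an isogenic pair either NRF2 wild-type or carrying a CRISPR gain-of-function, were cultured in DMEM with 10% FBS and treated in 384-well plates with library compounds at 5 concentrations across a 10,000-fold range. CellTiter-Glo viability was read on a Pherastar FS reader after 72 h and normalised to vehicle wells and 100-μM positive-control wells. Four-parameter logistic dose-response fits were applied. EC50 and drug sensitivity score, a normalised area under the curve, were taken from these fits.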

DLD1 NRF2-GOF [2] = settings: 72 h; CellTiter-Glo viability
Method in brief: as §1

DLD1 NRF2-WT [3] = experiment: TC50 cytotoxicity; higher = less toxic; settings: 72 h; CellTox Green cytotoxicity
Method in brief: (§2)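 Isogenic DLD1 colorectal cancer cells, either NRF2 wild-type or CRISPR gain-of-function, were grown in DMEM with 10% FBS. They were exposed in 384-well plates to library compounds at 5 concentrations spanning a 10,000-fold range. After 72 h, cytotoxicity was read by CellTox Green on a Pherastar FS reader and normalised to vehicle wells and 100-μM positive-control wells. TC50 and drug sensitivity score (a normalised area under the curve) came from logistic dose-response fits.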

DLD1 NRF2-GOF [4] = experiment: TC50 cytotoxicity; higher = less toxic; settings: 72 h; CellTox Green cytotoxicity
Method in brief: as §2

DLD1 NRF2-WT [5] = experiment: drug sensitivity score (DSS) cytotoxicity (DSS score); higher = more toxic; extreme values may be limits of the assay; settings: 72 h; CellTox Green cytotoxicity
Method in brief: as §2

DLD1 NRF2-GOF [6] = experiment: as above; settings: 72 h; CellTox Green cytotoxicity
Method in brief: as §2

DLD1 NRF2-WT [7] = experiment: drug sensitivity score (DSS) viability (DSS score); higher = more sensitive; extreme values may be limits of the assay; settings: 72 h; CellTiter-Glo viability
Method in brief: as §1

DLD1 NRF2-GOF [8] = experiment: as above; settings: 72 h; CellTiter-Glo viability
Method in brief: as §1

Row | Structure (SMILES) | EC50 viability (DLD1 NRF2-WT [1]) [µM] | EC50 viability (DLD1 NRF2-GOF [2]) [µM] | TC50 cytotoxicity (DLD1 NRF2-WT [3]) [µM] | TC50 cytotoxicity (DLD1 NRF2-GOF [4]) [µM] | drug sensitivity score (DLD1 NRF2-WT [5]) | drug sensitivity score (DLD1 NRF2-GOF [6]) | drug sensitivity score (DLD1 NRF2-WT [7]) | drug sensitivity score (DLD1 NRF2-GOF [8])
1 | O=c1[nH]cc(F)c(=O)[nH]1 [Fluorouracil] | 0.001 | 0.176 | > 10 | > 10 | 0 | 0 | 10.3 | 7.1
2 | CC1(C)OCCn2c1nc1c(N3CCOCC3)nc(-c3cnc(N)nc3)nc12 [GDC-0084] | 0.725 | 1.34 | 3.65 | > 10 | 1.1 | 0.3 | 10.9 | 8.4
3 | CCOC(=O)CCNc1cc(N2CCc3ccccc3CC2)nc(-c2ccccn2)n1 [GSK-J4] | 2.95 | 3.55 | > 100 | 2.8 | 0 | 7.8 | 17 | 16.4
4 | C[C@H]1C=C2C(=O)O[C@H]3CC[C@@H](C1)[C@@]23O [Galiellalactone] | > 25 | 0.414 | > 25 | > 25 | 0 | 0 | 2.8 | 5.1
5 | CN(C)C1CCN(C(=O)c2ccc(NC(=O)Nc3ccc(-c4nc(N5CCOCC5)nc(N5CCOCC5)n4)cc3)cc2)CC1 [Gedatolisib] | 0.0196 | 0.0266 | > 1 | > 1 | 0 | 0 | 13.5 | 12.6
6 | Nc1ccn([C@@H]2O[C@H](CO)[C@@H](O)C2(F)F)c(=O)n1 [Gemcitabine] | 0.0267 | 0.0284 | > 1 | > 1 | 0 | 0 | 11.4 | 10.7
7 | NC(=O)NO [Hydroxyurea] | 364 | 157 | > 1000 | > 1000 | 0 | 0 | 1.7 | 5.8
8 | C=CC(=O)N1CCC[C@@H](n2nc(-c3ccc(Oc4ccccc4)cc3)c3c(N)ncnc32)C1 [Ibrutinib] | > 1 | > 1 | > 1 | > 1 | 0 | 0 | 0.1 | 0
9 | CC(=O)[C@]1(O)Cc2c(O)c3c(c(O)c2[C@@H](O[C@H]2C[C@H](N)[C@H](O)[C@H](C)O2)C1)C(=O)c1ccccc1C3=O [Idarubicin] | 0.0452 | 0.0969 | 0.15 | 0.219 | 4.8 | 2.4 | 14.2 | 10
10 | O=C(Nc1ccncc1)C(=O)c1cn(Cc2ccc(Cl)cc2)c2ccccc12 [Indibulin] | 0.283 | 0.381 | > 10 | > 10 | 0.4 | 0 | 8.6 | 7.8

The next lines start with results.

Row | EC50 viability (DLD1 NRF2-WT [1]) [µM] | EC50 viability (DLD1 NRF2-GOF [2]) [µM] | Structure (SMILES) | TC50 cytotoxicity (DLD1 NRF2-WT [3]) [µM] | TC50 cytotoxicity (DLD1 NRF2-GOF [4]) [µM] | drug sensitivity score (DLD1 NRF2-WT [5]) | drug sensitivity score (DLD1 NRF2-GOF [6]) | drug sensitivity score (DLD1 NRF2-WT [7]) | drug sensitivity score (DLD1 NRF2-GOF [8])
11 | 0.414 | 0.361 | COc1cc2c(Oc3ccc(NC(=O)C4(C(=O)Nc5ccc(F)cc5)CC4)cc3F)ccnc2cc1OCCCN1CCOCC1 [Foretinib] | 0.28 | 0.267 | 3.2 | 6.3 | 2.1 | 3.3
12 | 0.0385 | 0.093 | COc1cc(Nc2ncc(F)c(Nc3ccc4c(n3)N(COP(=O)(O)O)C(=O)C(C)(C)O4)n2)cc(OC)c1OC [Fostamatinib] | > 2.5 | > 2.5 | 0 | 0.2 | 6.2 | 7.4
13 | 0.429 | > 2.5 | O=C(NOCCO)c1ccc2cncn2c1Nc1ccc(I)cc1F [GDC-0623] | > 2.5 | > 2.5 | 0 | 0 | 3.3 | 0
14 | 0.148 | 0.253 | CCNc1nc(Nc2cc(F)c(C(=O)N3CCOCC3)cc2OC)ncc1C(F)(F)F [GNE-7915] | > 1 | > 1 | 0 | 0 | 3.3 | 2.9
15 | > 1 | > 1 | CCCc1cc(C)[nH]c(=O)c1CNC(=O)c1cc(-c2ccnc(N3CCN(C)CC3)c2)cc2c1cnn2C(C)C [GSK343] | > 1 | > 1 | 0 | 0 | 0 | 0
16 | > 1 | 0.163 | Cc1cccc(-c2nn3c(c2-c2ccnc4ccc(C(N)=O)cc24)CCC3)n1 [Galunisertib] | > 1 | > 1 | 0 | 0 | 1.6 | 2.6
17 | 2.28 | 2.09 | Cc1cc(Nc2cc(CN3CCOCC3)c3nc(C)c(Cc4ccc(Cl)cc4F)n3n2)n[nH]1 [Gandotinib] | 1.89 | 1.62 | 2.8 | 6.1 | 5 | 6.2
18 | 0.0266 | 0.0228 | CC(C)c1cc(-c2n[nH]c(=O)n2-c2ccc3c(ccn3C)c2)c(O)cc1O [Ganetespib] | > 1 | > 1 | 0 | 0 | 17.9 | 18.4
19 | 2.46 | 4.08 | COc1cc2ncnc(Nc3ccc(F)c(Cl)c3)c2cc1OCCCN1CCOCC1 [Gefitinib] | > 10 | > 10 | 0 | 0 | 3.7 | 1.5
20 | > 2.5 | > 2.5 | CN1CCN(C2CCN(C(=O)Nc3cc(Oc4ccc(NC(=O)C5(C(=O)Nc6ccc(F)cc6)CC5)c(F)c4)ccn3)CC2)CC1 [Golvatinib] | > 2.5 | > 2.5 | 0 | 0 | 1.2 | 0
21 | > 10 | > 10 | CC[C@H](Nc1ncnc2[nH]cnc12)c1nc2cccc(F)c2c(=O)n1-c1ccccc1 [Idelalisib] | > 10 | > 10 | 0 | 0 | 1.6 | 2
22 | > 10 | 0.349 | N#Cc1ccnc(N2C(=O)CC[C@H]2C(=O)N(c2cncc(F)c2)[C@H](C(=O)NC2CC(F)(F)C2)c2ccccc2Cl)c1 [Ivosidenib] | > 10 | > 10 | 0 | 0 | 0.5 | 6.1
